Measured values reported in US20230265151A1, “GIP/GLP1 CO-AGONIST COMPOUNDS” (priority 2020, published 2023).
Read-outs that look alike come from different tables or passages of the source.

Assays:
[1] = target: T1, human Gcg receptor (hGcgR) (Homo sapiens, UniProt P47871); assay: [125I]-Glucagon binding, SPA with membranes of HEK293 cells expressing hGcgR; conditions: human GcgR; geometric mean (SEM, n); read-out: Binding Affinity Ki, nM (SEM, n) hGCGR
T1 construct: expressed in transfected cells; crude membranes
T1 sequence (P47871 26-477): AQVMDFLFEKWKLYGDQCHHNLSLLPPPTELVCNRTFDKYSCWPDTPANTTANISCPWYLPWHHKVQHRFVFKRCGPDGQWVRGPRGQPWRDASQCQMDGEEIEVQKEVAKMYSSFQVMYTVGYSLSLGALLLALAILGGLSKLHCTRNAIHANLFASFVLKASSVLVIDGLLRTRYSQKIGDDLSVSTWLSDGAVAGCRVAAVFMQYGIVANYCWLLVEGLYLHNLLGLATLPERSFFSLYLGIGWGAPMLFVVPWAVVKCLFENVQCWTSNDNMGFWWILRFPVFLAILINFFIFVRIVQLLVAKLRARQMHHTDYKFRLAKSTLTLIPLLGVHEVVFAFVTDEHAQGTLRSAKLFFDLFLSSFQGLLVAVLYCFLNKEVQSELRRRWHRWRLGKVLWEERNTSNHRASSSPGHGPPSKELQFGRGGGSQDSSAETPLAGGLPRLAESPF

hGIPR = target: T2, hGIPR (Homo sapiens, UniProt P48546); assay: Functional cAMP formation (HTRF) in HEK-293 clonal cells expressing hGIPR, 0.1% bovine casein, without or with 1.0% human serum albumin; format: cell-based; conditions: for Emax: read-out: hGIPR Emax, % ± SEM; for EC50: cAMP, read-out: hGIPR EC50, nM (SEM, n)
T2 construct: expressed in transfected cells
T2 sequence (P48546 22-466): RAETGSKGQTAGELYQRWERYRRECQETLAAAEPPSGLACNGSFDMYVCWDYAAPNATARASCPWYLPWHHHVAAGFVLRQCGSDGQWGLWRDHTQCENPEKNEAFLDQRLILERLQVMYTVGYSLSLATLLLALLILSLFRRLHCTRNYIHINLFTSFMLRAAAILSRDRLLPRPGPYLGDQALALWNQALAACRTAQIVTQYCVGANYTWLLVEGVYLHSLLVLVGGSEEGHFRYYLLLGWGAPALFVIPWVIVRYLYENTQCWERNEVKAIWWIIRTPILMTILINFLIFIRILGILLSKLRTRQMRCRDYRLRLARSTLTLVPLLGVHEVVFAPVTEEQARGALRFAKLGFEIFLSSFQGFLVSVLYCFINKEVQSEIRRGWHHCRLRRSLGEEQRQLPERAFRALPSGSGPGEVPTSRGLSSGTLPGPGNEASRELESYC
How it was run: (§1)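 Cells were stimulated with peptide for 30 min at 37° C, then intracellular cAMP was measured by competitive HTRF (665/620 nm ratio) and converted to nM using a cAMP standard curve. Relative EC50 and Emax came from four-parameter logistic fits of percent maximal response against peptide concentration.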

hGCGR = target: T3, hGCGR (Homo sapiens, UniProt P47871); assay: Functional cAMP formation (HTRF) in HEK-293 clonal cells expressing hGCGR, 0.1% bovine casein, without or with 1.0% human serum albumin; format: cell-based; conditions: read-out: hGCGR EC50, nM (SEM, n)
T3 construct: expressed in transfected cells
T3 sequence (P47871 26-477): as the sequence (P47871 26-477) above
How it was run: as §1

hGLP-1R = hGLP-1R (Homo sapiens, UniProt P43220); assay: Functional cAMP formation (HTRF) in HEK-293 clonal cells expressing hGLP-1R, 0.1% bovine casein, without or with 1.0% human serum albumin; format: cell-based; parameters: expressed in transfected cells; conditions: for EC50: cAMP, 0.1% bovine casein (no human serum albumin), geometric mean, read-out: hGLP-1R EC50, nM (SEM, n); for Emax: read-out: hGLP-1R Emax, % ± SEM
Sequence of hGLP-1R (P43220 24-463): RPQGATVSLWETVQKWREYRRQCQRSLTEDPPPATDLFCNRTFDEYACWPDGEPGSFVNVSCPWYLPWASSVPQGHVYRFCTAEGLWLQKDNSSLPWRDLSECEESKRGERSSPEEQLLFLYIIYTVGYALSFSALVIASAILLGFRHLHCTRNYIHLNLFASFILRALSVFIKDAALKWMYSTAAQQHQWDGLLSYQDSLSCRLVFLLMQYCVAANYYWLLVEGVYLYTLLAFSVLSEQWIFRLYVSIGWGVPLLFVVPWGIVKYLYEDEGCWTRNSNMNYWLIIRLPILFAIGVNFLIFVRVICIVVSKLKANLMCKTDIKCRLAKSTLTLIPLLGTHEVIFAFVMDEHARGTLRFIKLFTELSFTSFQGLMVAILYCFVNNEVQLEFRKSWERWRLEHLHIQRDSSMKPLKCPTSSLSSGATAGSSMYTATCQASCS
How it was run: as §1

[2] = HEK293, 0.1% bovine casein and 1.0% human serum albumin, 37° C., percent of maximal response to GIP(1-42)NH2
[3] = HEK293, percent of maximal response to GIP(1-42)NH2, 37° C., 0.1% bovine casein, arithmetic mean
[4] = 0.1% bovine casein and 1.0% human serum albumin, 37° C., geometric mean
[5] = cAMP, incubated at 37° C., 0.1% bovine casein (no human serum albumin), geometric mean
[6] = HEK293, 0.1% bovine casein and 1.0% human serum albumin, 37° C., percent of maximal response to GLP-1(7-36)NH2
[7] = HEK293, percent of maximal response to GLP-1(7-36)NH2, 37° C., 0.1% bovine casein, arithmetic mean

| Structure (SMILES) | Ki [1] | Emax (hGIPR; [2]) | Emax (hGIPR; [3]) | EC50 (hGIPR; incubated at 37° C., 0.1% bovine casein (no human serum albumin), geometric mean) | EC50 (hGCGR; [4]) | EC50 (hGCGR; [5]) | EC50 (hGLP-1R; incubated at 37° C.) | Emax (hGLP-1R; [6]) | Emax (hGLP-1R; [7]) | Emax (hGIPR; HEK293, cAMP, 37° C., 0.1% bovine casein and 1.0% human serum albumin, percent of maximal response to GIP(1-42)NH2) | EC50 (hGIPR; 37° C., 0.1% bovine casein (no human serum albumin), geometric mean) | EC50 (hGIPR; 37° C., 0.1% bovine casein and 1.0% human serum albumin, geometric mean (SEM, n)) | EC50 (hGCGR; cAMP, 37° C., 0.1% bovine casein (no human serum albumin), geometric mean) | EC50 (hGCGR; cAMP, 37° C., 0.1% bovine casein and 1.0% human serum albumin, geometric mean (SEM, n)) | Emax (hGLP-1R; HEK293, cAMP, 37° C., 0.1% bovine casein and 1.0% human serum albumin, percent of maximal response to GLP-1(7-36)NH2) | EC50 (hGLP-1R; 37° C.) |
| --- | --- | --- | --- | --- | --- | --- | --- | --- | --- | --- | --- | --- | --- | --- | --- | --- |
| CC[C@H](C)[C@H](NC(=O)[C@H](CCCN)NC(=O)[C@H](CC(=O)O)NC(=O)[C@H](CC(C)C)NC(=O)[C@](C)(CC(C)C)NC(=O)[C@@H](NC(=O)C(C)(C)NC(=O)[C@H](Cc1ccncc1)NC(=O)[C@H](CC(=O)O)NC(=O)[C@H](CO)NC(=O)[C@@H](NC(=O)[C@](C)(Cc1ccccc1F)NC(=O)[C@@H](NC(=O)CNC(=O)[C@H](CCC(=O)O)NC(=O)C(C)(C)NC(=O)[C@@H](N)Cc1ccc(O)cc1)[C@@H](C)O)[C@@H](C)O)[C@@H](C)CC)C(=O)N[C@@H](C)C(=O)N[C@@H](CCC(N)=O)C(=O)NC(C)(C)C(=O)N[C@@H](CCC(=O)O)C(=O)N[C@@H](Cc1ccccc1)C(=O)N[C@H](C(=O)N[C@@H](CCCCNC(=O)COCCOCCNC(=O)COCCOCCNC(=O)CC[C@H](NC(=O)CCCCCCCCCCCCC(=O)O)C(=O)O)C(=O)N[C@@](C)(Cc1ccc(O)cc1)C(=O)N[C@@H](CC(C)C)C(=O)N[C@H](C(=O)N[C@@H](CCCCNC(=O)COCCOCCNC(=O)COCCOCCNC(=O)CC[C@H](NC(=O)CCCCCCCCCCCCC(=O)O)C(=O)O)C(=O)NCC(=O)NCC(=O)N1CCC[C@H]1C(=O)N[C@@H](CO)C(=O)N[C@@H](CO)C(=O)NCC(=O)N[C@@H](C)C(=O)N1CCC[C@H]1C(=O)N1CCC[C@H]1C(=O)N1CCC[C@H]1C(=O)N[C@@H](CO)C(N)=O)[C@@H](C)CC)[C@@H](C)CC [Example 219] | 135 nM | 82.9% | 96.7% | 0.0227 nM | > 9950 nM | > 9950 nM | 0.376 nM | – | – | – | – | – | – | – | – | – |
| CC[C@H](C)[C@H](NC(=O)[C@H](CC(C)C)NC(=O)[C@](C)(Cc1ccc(O)cc1)NC(=O)[C@@H](CCC(=O)O)NC(=O)[C@@H](NC(=O)[C@H](Cc1ccccc1)NC(=O)[C@H](CCC(=O)O)NC(=O)C(C)(C)NC(=O)[C@H](CCC(N)=O)NC(=O)[C@H](C)NC(=O)[C@H](CCCCNC(=O)COCCOCCNC(=O)COCCOCCNC(=O)CC[C@H](NC(=O)CCCCCCCCCCCCC(=O)O)C(=O)O)NC(=O)[C@H](CCCN)NC(=O)[C@H](CC(=O)O)NC(=O)[C@H](CC(C)C)NC(=O)[C@](C)(CC(C)C)NC(=O)[C@@H](NC(=O)[C@H](CO)NC(=O)[C@](C)(Cc1ccccc1)NC(=O)[C@H](CC(=O)O)NC(=O)[C@H](CO)NC(=O)[C@@H](NC(=O)[C@](C)(Cc1ccccc1)NC(=O)[C@@H](NC(=O)CNC(=O)[C@H](CCC(=O)O)NC(=O)C(C)(C)NC(=O)[C@@H](N)Cc1ccc(O)cc1)[C@@H](C)O)[C@@H](C)O)[C@@H](C)CC)[C@@H](C)CC)C(=O)N[C@@H](CCC(=O)O)C(=O)NCC(=O)NCC(=O)N[C@@H](CCCCNC(=O)COCCOCCNC(=O)COCCOCCNC(=O)CC[C@H](NC(=O)CCCCCCCCCCCCC(=O)O)C(=O)O)C(=O)N[C@@H](CO)C(=O)N[C@@H](CO)C(=O)NCC(=O)N[C@@H](C)C(=O)N1CCC[C@H]1C(=O)N1CCC[C@H]1C(=O)N1CCC[C@H]1C(=O)N[C@@H](CO)C(N)=O [Example 45] | > 966 nM | 72.5% | 91.3 ± 1.04% | – | > 9950 nM | > 9950 nM | 9.18 nM | 109% | 85.7 ± 8.37% | – | – | – | – | – | – | – |
| CC[C@H](C)[C@H](NC(=O)[C@H](CC(C)C)NC(=O)[C@](C)(Cc1ccc(O)cc1)NC(=O)[C@@H](CCC(=O)O)NC(=O)[C@@H](NC(=O)[C@H](Cc1ccccc1)NC(=O)[C@H](CCC(=O)O)NC(=O)C(C)(C)NC(=O)[C@H](CCC(N)=O)NC(=O)[C@H](C)NC(=O)[C@H](CCCCNC(=O)COCCOCCNC(=O)COCCOCCNC(=O)CC[C@H](NC(=O)CCCCCCCCCCCCC(=O)O)C(=O)O)NC(=O)[C@H](CCCN)NC(=O)[C@H](CC(=O)O)NC(=O)[C@H](CC(C)C)NC(=O)[C@](C)(Cc1ccccc1)NC(=O)[C@@H](NC(=O)[C@H](CO)NC(=O)[C@H](Cc1ccncc1)NC(=O)[C@H](CC(=O)O)NC(=O)[C@H](CO)NC(=O)[C@@H](NC(=O)[C@](C)(Cc1ccccc1)NC(=O)[C@@H](NC(=O)CNC(=O)[C@H](CCC(=O)O)NC(=O)C(C)(C)NC(=O)[C@@H](N)Cc1ccc(O)cc1)[C@@H](C)O)[C@@H](C)O)[C@@H](C)CC)[C@@H](C)CC)C(=O)N[C@@H](CCC(=O)O)C(=O)NCC(=O)NCC(=O)N[C@@H](CCCCNC(=O)COCCOCCNC(=O)COCCOCCNC(=O)CC[C@H](NC(=O)CCCCCCCCCCCCC(=O)O)C(=O)O)C(=O)N[C@@H](CO)C(=O)N[C@@H](CO)C(=O)NCC(=O)N[C@@H](C)C(=O)N1CCC[C@H]1C(=O)N1CCC[C@H]1C(=O)N1CCC[C@H]1C(=O)N[C@@H](CO)C(N)=O [Example 46] | > 966 nM | 73.3% | 89.5 ± 2.64% | – | > 9950 nM | > 9950 nM | – | 117% | 79.2 ± 1.23% | – | – | – | – | – | – | – |
| CC[C@H](C)[C@H](NC(=O)[C@H](CC(C)C)NC(=O)[C@](C)(Cc1ccc(O)cc1)NC(=O)[C@@H](CCC(=O)O)NC(=O)[C@@H](NC(=O)[C@H](Cc1ccccc1)NC(=O)[C@H](CCC(=O)O)NC(=O)C(C)(C)NC(=O)[C@H](CCC(N)=O)NC(=O)[C@H](C)NC(=O)[C@H](CCCCNC(=O)COCCOCCNC(=O)CC[C@H](NC(=O)CCCCCCCCCCCCC(=O)O)C(=O)O)NC(=O)[C@H](CCCN)NC(=O)[C@H](CC(=O)O)NC(=O)[C@H](CC(C)C)NC(=O)[C@](C)(CC(C)C)NC(=O)[C@@H](NC(=O)C(C)(C)NC(=O)[C@H](Cc1ccncc1)NC(=O)[C@H](CC(=O)O)NC(=O)[C@H](CO)NC(=O)[C@@H](NC(=O)[C@](C)(Cc1ccccc1F)NC(=O)[C@@H](NC(=O)CNC(=O)[C@H](CCC(=O)O)NC(=O)C(C)(C)NC(=O)[C@@H](N)Cc1ccc(O)cc1)[C@@H](C)O)[C@@H](C)O)[C@@H](C)CC)[C@@H](C)CC)C(=O)N[C@@H](CCCCNC(=O)COCCOCCNC(=O)CC[C@H](NC(=O)CCCCCCCCCCCCC(=O)O)C(=O)O)C(=O)NCC(=O)NCC(=O)N1CCC[C@H]1C(=O)N[C@@H](CO)C(=O)N[C@@H](CO)C(=O)NCC(=O)N[C@@H](C)C(=O)N1CCC[C@H]1C(=O)N1CCC[C@H]1C(=O)N1CCC[C@H]1C(=O)N[C@@H](CO)C(N)=O [Example 337] | > 957 nM | – | – | – | – | – | – | – | – | 86.8% | 0.0151 nM | 2.65 nM | > 10100 nM | > 10100 nM | 100% | 0.444 nM |
